Data reported in patent publication US5462861A, “Method for improving enzyme activities with noble gases” (American Air Liquide, Chicago Research Center, priority 1993, dated 1995).
“Also recorded” adds a separate entry of the source.

What was measured:
[1] = tested on: Tyrosinase; assay: Tyrosinase-L-tyrosine reaction, solution saturated with gas; assay type: biochemical, Mushroom; details: for temperature dependence of the effect on tyrosinase: various temperatures (15-35° C.); for effect on rate and final equilibrium of the tyrosinase-L-tyrosine reaction: various temperatures
Protocol: (§1) Solution preparation: Optimized w/v solutions are prepared by diluting the enzyme (units/ml) and the substrate (μg/ml) in appropriate buffer (optimized pH and molarity for enzymes). The solutions are used for gas experiments at once to avoid loss of activity. Various enzyme and substrate concentrations and inhibitors may be employed. Physical parameters are varied as required.
(§2) Preparation of samples: Cuvets are filled with 2 ml of substrate solution by means of a gas-tight syringe. Gas-tight serum vials are filled with enzyme and solvent. Sufficient gas is consecutively bubbled in the cuvets and serum vials, with a 1-hr wait between injections to maximize equilibration of gas. All syringes and dead spaces are purged before filling with the appropriate gas. The amount of gas used has been measured sufficient to saturate the solution required.
(§3) Spectrophotometric time-drive, reaction rate, and kinetic analyses: cuvets and serum vials are saturated with gas 40 minutes before the run. A gas-filled syringe is used to retrieve 0.5 ml of enzyme solution to avoid air contact. The 0.5 ml syringe injections of enzyme are made simultaneously to effect a common starting time to for the samples. 7 gases (air, O2, N2, Ne, Ar, Kr, Xe) are run at various temperatures each (from 0° to 60° ). Changes in the rate or final equilibrium of the reaction versus ambient air are recorded. Comparison is also made with added oxygen, and with deoxygenation. Some samples are also prepared under pressure.
1. Solution preparation: 10% w/v solutions are prepared by diluting the enzyme (units/ml) and the substrate (μg/ml) in Sodium Phosphate buffer (pH 6.85, optimized pH for enzymes). The solutions are stored in refrigerator (0°-5° C.) and used for gas experiments within 2 or 3 days to avoid loss of activity.
6. Preparation of run samples: Acrylic cuvets are filled with 2 ml of substrate solution by means of a gas tight syringe. Gastight serum vials are filled with enzyme. 3×10 cc of gas are consecutively bubbled in the cuvets and serum vials, with a […] between injections. This represents a 10× displacement of dead volume while maximizing equilibration of gas. All syringes and dead spaces are purged before filling with the appropriate gas. After the third 10 cc injection, the cuvets and serum vials are left overnight under two 10 cc syringes filled with the appropriate gas in refrigerator at 0°-5° C.
8. Spectrophotometric runs: The cuvets and serum vials are filled with 10 cc of gas 40 min before the run. A gas-filled syringe is used to retrieve 0.5 ml of enzyme solution to avoid air contact. The 0.5 ml syringe injections of enzyme are made simultaneously to effect a common starting time t0 for the samples. Seven gases (air, O2, N2, Ne, Ar, Kr, Xe) are run at five temperatures each (15° C., 20° C., 25° C., 30° C., 35° C.). Changes in the rate or final equilibrium of the reaction versus ambient air are recorded.
The optimal conditions are [E]/[S] (100 μg/ml)/(100 μg/ml), the changes in absorbance being observed at 305 nm.
3×10 cc of gas are bubbled in the silicone-sealed cuvets and serum vials (T-3754, T-7755), with an interval of 20 min (at 0°-5°C.) between each gas injection.
a. The silicone-sealed cuvets are removed from the refrigerator 40 min before the experimental run, filled with 10 cc of gas and left at room temperature (26° C.) under two 10 cc syringes.
The 0.5 ml syringe injections of enzyme are made simultaneously to effect a common starting time t0 for the samples.
200 points, 18 s intervals 1 hr run

[2] = tested on: Aspartate aminotransferase; assay: Aspartate aminotransferase activity under gas; assay type: biochemical
Protocol: as §1, §2, §3

[3] = tested on: phenylalanine ammonia lyase; assay: Phenylalanine ammonia lyase activity under gas; assay type: biochemical; details: head not printed
Protocol: as §1, §2, §3
(§4) In a complete experiment, an enzyme at optimal pH and buffering salt concentration is reacted with 5 substrate concentrations in solution with noble gas at 1 atm. […] Controls are also run after evacuation of solution by vacuum. The reaction is monitored colorimetrically in a scanning spectrophotometer in real time, and the signals are treated mathematically to obtain rate and yield differences. Sample numbers are constant and sufficient to ensure significance of results. All parameters are independently controlled and measured, and more complex experiments are occasionally carried out.

[4] = tested on: Tyrosinase; assay: Gas mixture experiment, tyrosinase; assay type: biochemical, Mushroom; details: Mix = % Xe in AR; inhibition vs. air control; 25° C.
Protocol: In addition to mixes of noble gases with nitrogen and oxygen, and of mixes of Kr and Xe, serial mixes of Ar and either Xe or Kr were tested. Results for tyrosinase expressed as inhibition vs. air control: Apr. 18, 1991: Gas mix prep: 120 cc serum vials were used to mix the gassed in. These vials were purged using vacuum while 1 atm of argon was maintained in the vial. The vials were purged for 20 seconds in this manner. The vials were under slight pressure which was released through a needle. This is considered 120 cc of Argon. The necessary volumes of Argon and the gas to be mixed with (Xe or Kr) were then introduced into the vials using a 30 cc syringe and needle. We gassed the enzyme using 1 vial of gas mix using 8×10 cc of gas out of the vial. We gassed the cuvette/substrate using a second vial of gas mix using 8×10 cc of gas out of the vial. Argon and Xenon were retrieved from the gas cylinders. […] We determined that we would be unable to retrieve 8×10 cc of gas mix from 1 vial. […] We prepared the Ar/Kr mixes as described above and did 2 replicates of the 10% and 50% mixes.

[5] = tested on: α-D-glucosidase; assay: α-D-glucosidase activity under gas; assay type: biochemical; details: 60° C., FIG. 43
Protocol: (§5) Solution preparation: Optimized w/v solutions are prepared by diluting the enzyme (units/ml) and the substrate (μg/ml) in appropriate buffer (optimized pH and molarity for enzymes). The solutions are used for gas experiments at once to avoid loss of activity. Various enzyme and substrate concentrations and inhibitors may be employed. Physical parameters are varied as required. […] Gas-tight serum vials are filled with enzyme and solvent. Sufficient gas is consecutively bubbled in the cuvets and serum vials, with a 1-hr wait between injections to maximize equilibration of gas. All syringes and dead spaces are purged before filling with the appropriate gas. The amount of gas used has been measured sufficient to saturate the solution required. Spectrophotometric time-drive, reaction rate, and kinetic analyses: cuvets and serum vials are saturated with gas 40 minutes before the run. A gas-filled syringe is used to retrieve 0.5 ml of enzyme solution to avoid air contact. […] Changes in the rate or final equilibrium of the reaction versus ambient air are recorded. Comparison is also made with added oxygen, and with deoxygenation. Some samples are also prepared under pressure.

[6] = tested on: lactate dehydrogenase; assay: Lactate dehydrogenase activity under gas; assay type: biochemical; details: 10° C., FIG. 42
Protocol: as §5

[7] = tested on: oxidoreductase enzymes; assay: Oxidoreductases, effects for the class; assay type: biochemical
Protocol: as §1, §2, §3, §4

[8] = tested on: hydrolases; assay: Hydrolases, effects for the class; assay type: biochemical
Protocol: as §1
as §2, with “All syringes and dead spaces are purged before filling with the appropriate gas.” left out
Spectrophotometric time-drive, reaction rate, and kinetic analyses: cuvets and serum vials are saturated with gas 40 minutes before the run. […] Changes in the rate or final equilibrium of the reaction versus ambient air are recorded. […]
In a complete experiment, an enzyme at optimal pH and buffering salt concentration is reacted with 5 substrate concentrations in solution with noble gas at 1 atm. […] The reaction is monitored colorimetrically in a scanning spectrophotometer in real time, and the signals are treated mathematically to obtain rate and yield differences. […]

For `[Xe]` [Xe, xenon], the “effect on tyrosinase-L-tyrosine reaction” value ([1]; 15° C.) was “small, but significant inhibitory effect; also recorded: small but significant inhibitory effect”, the “effect on tyrosinase-L-tyrosine reaction” value ([1]; 20° C.) was “inhibits the tyrosinase-L-tyrosine reaction quite strongly; also recorded: dramatically inhibit; also recorded: inhibiting effects” and the “effect on tyrosinase-L-tyrosine reaction” value ([1]; 25° C.) was “inhibitory effect”. The effect ([1]; 25° C., optimal reaction conditions, simple saturation of solution with gas, minus = inhibition) was -73%, the effect on tyrosinase ([1]; 26° C.) was “very large inhibition; also recorded: optimal inhibition curve” and the “area of run curve” value ([1]; 26° C., FIG. 6) was ~3037 μ. The “inhibition of air rate” value ([1]; 26° C., FIG. 6, estimated from curve areas) was ~72.92%, the “total area as % of air area” value ([1]; 26° C., FIG. 6, 60 min) was ~27.08% and the “% total area” value ([1]; 26° C., FIG. 6, total = air + xenon areas) was ~21.31. The “effect on tyrosinase-L-tyrosine reaction” value ([1]; 30° C., listed as Xenon) was “inhibits the reaction much better than other gases”, the “effect on tyrosinase-L-tyrosine reaction” value ([1]; 30° C., listed as xenon) was “inhibitory effect” and the effect on tyrosinase ([1]; equal w/w, FIG. 5) was “inhibition”. The “temperature dependence of the effect on tyrosinase” value ([1]; listed as Xenon) was “interacts inversely with temperature”, the “temperature dependence of the effect on tyrosinase” value ([1]; listed as xenon) was “at least two activity transitions; also recorded: large difference in xenon activity between 20 °C and 25 °C; also recorded: interacts inversely with temperature; also recorded: large difference in xenon activity between 20° and 25 °C” and the “effect on rate and final equilibrium of the tyrosinase-L-tyrosine reaction” value ([1]; listed as Xenon) was “significantly inhibits the rate and depresses the final equilibrium”. The “effect on rate and final equilibrium of the tyrosinase-L-tyrosine reaction” value ([1]; listed as xenon) was “inhibits the equilibrium of the tyrosinase-L-tyrosine reaction better than other gases; also recorded: inhibition”, the “effect on aspartate aminotransferase” value ([2]; FIG. 30) was “inhibition” and the effect ([2]; minus = inhibition) was -17%. For the same compound, the “effect on phenylalanine ammonia lyase” value ([3]; optimized enzyme concentration, first value column) was “+18”, the “effect on phenylalanine ammonia lyase” value ([3]; optimized enzyme concentration, second value column) was “+3” and the “effect on phenylalanine ammonia lyase” value ([3]; optimized enzyme concentration, third value column) was “+5”. The “effect on phenylalanine ammonia lyase” value ([3]; suboptimal enzyme concen., first value column) was “+14”, the “effect on phenylalanine ammonia lyase” value ([3]; suboptimal enzyme concen., second value column) was “+8” and the “effect on phenylalanine ammonia lyase” value ([3]; suboptimal enzyme concen., third value column) was “+11”. The “% inhibited” value [4] was -86%, the “effect on α-glucosidase activity” value [5] was “enhanced” and the “effect on lactate dehydrogenase” value [6] was “enhancing”. For the same compound, the “effect on oxidoreductase reactions” value [7] was “largest effect on the rate”, the “Maxima for class: effect” value ([7]; Class I oxidoreductases, minus = inhibition) was -95% and the effect on hydrolases [8] was “largest enhancing effect”.
